Data on 30 compounds can be found in patent publication US20240101531A1, “PYRIDINAMINE DERIVATIVES AND THEIR USE AS POTASSIUM CHANNEL MODULATORS” (Xenon Pharmaceuticals Inc., priority 2022, published 2024).

Counter-ions that a name gives are not always drawn.

The target in this assay is human KV7.2/KV7.3 (Homo sapiens (Human), UniProt O43525+O43526). In words: Potassium flux assay (IPG-2 AM dye). The class given is cell-based. The note with it: TREX HEK 293 or HEK 293 cells expressing human KV7.2/KV7.3; arithmetic mean values. From the text:
This potassium flux assay employs the cell-permeable, potassium-sensitive dye, IPG-2 AM, to quantify potassium ion flux through potassium channels.
In general, TREX HEK 293 or HEK 293 cells were stably transfected with either an inducible or non-inducible expression vector containing the full-length cDNA coding for the desired human KV7.2/KV7.3 or in combination with another full-length cDNA for a second desired human KV7 potassium channel. Potassium channel-expressing cell lines were induced with tetracycline (1 μg/mL), if required, and plated on 384-well poly-D-lysine (PDL)-coated plates in culture media (DMEM, containing 10% FBS and 1% L-glutamine). After overnight incubation, culture media was removed and cells were loaded with 5 μM IPG-2 AM dye for 1 hour in Assay buffer (140 mM NaCl, 20 mM RbCl, 2 mM CaCl2, 1 mM MgCl2, 10 mM HEPES (4-(2-hydroxyethyl)-1-piperazineethanesulfonic acid buffer), 10 mM glucose, adjusted with Tris to pH 7.4). Excess dye was removed, and cells incubated at room temperature for 20 minutes with or without test compound. A Hamamatsu FDSS μCell was used to perform a 1:1 addition of K challenge buffer (150 mM NaCl, 10 mM HEPES, 2 mM CaCl2, 10 mM KCl, 1 mM MgCl2, 10 mM glucose, adjusted with Tris to pH 7.4 for human KV7.2/KV7.3, and simultaneously read plates at excitation wavelength of 530 nm and emission wavelength of 558 nm. Non-potassium channel-mediated potassium influx was determined in the presence of DMSO, and maximal influx was determined in the presence of a known KV7.x channel modulator. For each test compound, a concentration response curve was generated with 16 concentrations points, 2-fold serial dilution starting at 30 μM and an EC50 value was determined.

Regarding `Cc1cn(C)nc1COc1ccc2c(Nc3ccc(Cl)nc3)nccc2c1` [Example 204, N-(6-chloropyridin-3-yl)-6-((1,4-dimethyl-1H-pyrazol-3-yl)methoxy)isoquinolin-1-amine], the concentration for a half-maximal effect (EC50) (commonly the concentration needed to bring the measured effect to its halfway point) lay within 1000 to 10000 nM. With `CC(=O)N1CC(COc2ccc3c(Nc4ccc(Cl)nc4)nccc3c2)C1` [Example 309, 1-(3-(((1-((6-chloropyridin-3-yl)amino)isoquinolin-6-yl)oxy)methyl)azetidin-1-yl)ethan-1-one], the EC50 lay within 1000 to 10000 nM. Take `COc1ncc(COc2ccc3c(Nc4ccc(Cl)nc4)nccc3c2)cn1` [Example 186, N-(6-chloropyridin-3-yl)-6-((2-methoxypyrimidin-5-yl)methoxy)isoquinolin-1-amine]: the EC50 was in the range of 1000 to 10000 nM.

Consider `Clc1ccc(Nc2nccc3cc(OCCC4CC4)ccc23)cn1` [Example 180, N-(6-chloropyridin-3-yl)-6-(2-cyclopropylethoxy)isoquinolin-1-amine], for which the EC50 lay within 10000 to 30000 nM.

In the case of `Cc1ccc(COc2ccc3c(Nc4ccc(Cl)nc4)nccc3c2)cn1` [Example 194, N-(6-chloropyridin-3-yl)-6-((6-methylpyridin-3-yl)methoxy)isoquinolin-1-amine], the concentration for a half-maximal effect (EC50) was less than 1000 nM. As for `CS(=O)(=Nc1ccc2c(Nc3ccc(Cl)nc3)nccc2c1)C1COC1` (stereo in doubt) [Example 277, (R)-((1-((6-chloropyridin-3-yl)amino)isoquinolin-6-yl)imino)(methyl)(oxetan-3-yl)-λ^6-sulfanone)], the EC50 lay in the range of 1000 to 10000 nM. For `CS(=O)(CC1COC1)=Nc1ccc2c(Nc3ccc(Cl)nc3)nccc2c1` (stereo not drawn) [Example 272, ((1-((6-chloropyridin-3-yl)amino)isoquinolin-6-yl)imino)(methyl)(oxetan-3-ylmethyl)-λ^6-sulfanone], the concentration giving a half-maximal response (EC50) lay within 1000 to 10000 nM. For the compound `Cn1cc(COc2ccc3c(Nc4ccc(Cl)nc4)nccc3c2)c(Cl)n1` [Example 292, 6-((3-chloro-1-methyl-1H-pyrazol-4-yl)methoxy)-N-(6-chloropyridin-3-yl)isoquinolin-1-amine], the EC50 was less than 1000 nM. For `Clc1ccc(Nc2nccc3cc(OCC45CCCN4CCC5)ccc23)cn1` [Example 115, N-(6-chloropyridin-3-yl)-6-((tetrahydro-1H-pyrrolizin-7a(5H)-yl)methoxy)isoquinolin-1-amine], the EC50 is not below 30000 nM. To `CC1(C)CC(COc2ccc3c(Nc4ccc(Cl)nc4)nccc3c2)O1` (stereo not drawn) [Example 209, N-(6-chloropyridin-3-yl)-6-((4,4-dimethyloxetan-2-yl)methoxy)isoquinolin-1-amine] belongs 1000 to 10000 nM; to `FC(F)(F)CNc1cnc(Nc2ccc(Cl)nc2)c2[nH]ccc12` [Example 402, NF-(6-chloropyridin-3-yl)-N^4-(2,2,2-trifluoroethyl)-1H-pyrrolo[2,3-c]pyridine-4,7-diamine], 1000 to 10000 nM. For `Clc1ccc(Nc2nccc3scnc23)cn1` [Example 13, N-(6-chloropyridin-3-yl)thiazolo[4,5-c]pyridin-4-amine], the half-maximal effective concentration (EC50) fell in the range of 1000 to 10000 nM.

With `Clc1ncc(Nc2nccc3cc(OCc4cn[nH]c4)ccc23)cn1` [Example 381, 6-((1H-pyrazol-4-yl)methoxy)-N-(2-chloropyrimidin-5-yl)isoquinolin-1-amine], the EC50 was less than 1000 nM. With `[2H]C([2H])(Oc1ccc2c(Nc3cnc(Cl)nc3)nccc2c1)C1(F)CC1` [Example 384, N-(2-chloropyrimidin-5-yl)-6-((1-fluorocyclopropyl)methoxy-d2)isoquinolin-1-amine], the EC50 is less than 1000 nM. On to `CC1(COc2ccc3c(Nc4ccc(Cl)nc4)nccc3c2)CCCO1` (stereo not drawn) [Example 406, N-(6-chloropyridin-3-yl)-6-((2-methyltetrahydrofuran-2-yl)methoxy)isoquinolin-1-amine], for which the EC50 was less than 1000 nM. As to `C[C@H](COc1ccc2c(Nc3ccc(Cl)nc3)nccc2c1)c1cnn(C)c1` [Example 160, (S)—N-(6-chloropyridin-3-yl)-6-(2-(1-methyl-1H-pyrazol-4-yl)propoxy)isoquinolin-1-amine], the concentration giving a half-maximal response (EC50) was 1000 to 10000 nM.

With `C[Si](C)(C)CCOCN(c1ccc(Cl)nc1)c1nccc2cc(F)ccc12` [Example 92, N-(6-chloropyridin-3-yl)-6-fluoro-N-((2-(trimethylsilyl)ethoxy)-methyl)isoquinolin-1-amine], the EC50 lay in the range of 1000 to 10000 nM. On to `Cn1cncc1COc1ccc2c(Nc3ccc(Cl)nc3)nccc2c1` [Example 65, N-(6-chloropyridin-3-yl)-6-((1-methyl-1H-imidazol-5-yl)methoxy)isoquinolin-1-amine], for which the concentration for a half-maximal effect (EC50) was less than 1000 nM. As to `Clc1ccc(Nc2nccc3cc(OCc4ccccc4)ccc23)cn1` [Example 76, 6-(benzyloxy)-N-(6-chloropyridin-3-yl)isoquinolin-1-amine], the EC50 is not below 30000 nM.

Consider `Cc1ncc(Nc2nccc3cc(OCC4(F)CC4)ccc23)cn1` [Example 189, 6-((1-fluorocyclopropyl)methoxy)-N-(2-methylpyrimidin-5-yl)isoquinolin-1-amine], for which the concentration for a half-maximal effect (EC50) is less than 1000 nM. The value for `CS(=O)(=O)C1(COc2ccc3c(Nc4ccc(Cl)nc4)nccc3c2)CCC1` [Example 287, N-(6-chloropyridin-3-yl)-6-((1-(methylsulfonyl)cyclobutyl)methoxy)isoquinolin-1-amine] was 1000 to 10000 nM; that for `Cc1ncc(Nc2nccc3cc(OCC4(C)COC4)ccc23)cn1` [Example 218, 6-((3-methyloxetan-3-yl)methoxy)-N-(2-methylpyrimidin-5-yl)isoquinolin-1-amine] was less than 1000 nM; that for `CC1(CNc2ccc3c(Nc4ccc(Cl)nc4)nccc3c2)COC1` [Example 245, N′-(6-chloropyridin-3-yl)-N^6-((3-methyloxetan-3-yl)methyl)isoquinoline-1,6-diamine] was 1000 to 10000 nM. As for `C[C@H]1COCCN1CCOc1ccc2c(Nc3ccc(Cl)nc3)nccc2c1` [Example 321, (S)-N-(6-chloropyridin-3-yl)-6-(2-(3-methylmorpholino)ethoxy)isoquinolin-1-amine], the concentration giving a half-maximal response (EC50) fell in the range of 1000 to 10000 nM.

Take `FC1(COc2ccc3c(Nc4ccc(Cl)nc4)nccc3c2)CNC1` [Example 59, N-(6-chloropyridin-3-yl)-6-((3-fluoroazetidin-3-yl)methoxy)isoquinolin-1-amine hydrochloride]: the EC50 fell in the range of 10000 to 30000 nM. Turning to `Cc1ncc(Nc2nccc3cc(OCc4ccn(C)n4)ccc23)cn1` [Example 206, 6-((1-methyl-1H-pyrazol-3-yl)methoxy)-N-(2-methylpyrimidin-5-yl)isoquinolin-1-amine], the EC50 was 1000 to 10000 nM. In the case of `Clc1ccc(Nc2nccc3cc(OCC4(C5CC5)CC4)ccc23)cn1` [Example 137, 6-([1,1′-bi(cyclopropan)]-1-ylmethoxy)-N-(6-chloropyridin-3-yl)isoquinolin-1-amine], the EC50 was less than 1000 nM. To `Cc1nn(C)cc1[C@H](C)Oc1ccc2c(Nc3ccc(Cl)nc3)nccc2c1` [Example 175, (S)—N-(6-chloropyridin-3-yl)-6-(1-(1,3-dimethyl-1H-pyrazol-4-yl)ethoxy)isoquinolin-1-amine] belongs 1000 to 10000 nM; to `Clc1ccc(Nc2nccc3cc(OC4CCC4)ccc23)cn1` [Example 411, N-(6-chloropyridin-3-yl)-6-cyclobutoxyisoquinolin-1-amine], 1000 to 10000 nM. `Clc1ccc(Nc2nccc3cc(OCCOC4CC4)ccc23)cn1` [Example 39, N-(6-chloropyridin-3-yl)-6-(2-cyclopropoxyethoxy)isoquinolin-1-amine]: the EC50 lay in the range of 1000 to 10000 nM.
